Test results published in US10519177B2, “Heterocyclic compounds and uses thereof” (Plexxikon Inc., priority 2013, dated 2019).

What was measured:
MV-4-11 cells = test: Oncology cell growth assay MV-4-11 (CellTiter Glo); assay type: cell-based; details: Homo sapiens, MV4-11, 72 h; read-out: Cell activity (IC50 μM) MV-4-11 3d-Growth
Summary of the method: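 MV-4-11 AML cells (MLL-AF4), 3000 per well, exposed to 8-point 1:3 compound titration from 10 μM top concentration (0.2% DMSO) for 72 h. Viability by CellTiter Glo luminescence, normalized to DMSO controls; pIC50 from four-parameter curve fit.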

bromodomain = test: at least one of the bromodomain cell assays of Example 57; assay type: cell-based; details: at least one of the bromodomain cell assays described in Example 57; read-out: IC50 in at least one of the bromodomain cell assays
BRD4-BD12 (1-477) = BRD4-BD12 (1-477) (Homo sapiens (Human), UniProt O60885); test: Alphascreen binding assay BRD4-BD12; details: BRD4(1 2) H4; read-out: Biochemical activity (IC50 μM) BRD4(1 2) H4
Summary of the method: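 First, compound was preincubated 1 h at room temperature with the His-tagged BRD4 protein (BD1 44-164 or tandem BD12 1-477) and acetylated H4 peptide. Next, donor and acceptor beads were added at 7.5 μg/ml final. After 30 min, AlphaScreen emission was recorded.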

Compound	IC50 (MV-4-11 cells)	IC50 (bromodomain)	IC50 (BRD4-BD12 (1-477))
[2H]C([2H])(C1CCC(F)(F)CC1)n1cc(-c2ccc(C(=O)O)cc2)c2ncc(-c3c(C)noc3C)cc21 [P-0363, 4-[1-[dideuterio-(4,4-difluorocyclohexyl)methyl]-6-(3,5-dimethylisoxazol-4-yl)pyrrolo[3,2-b]pyridin-3-yl]benzoic acid]	< 1 µM	< 10 µM	< 1 µM
[2H]C([2H])(C1CCC(F)(F)CC1)n1cc(-c2cnc(N)cn2)c2ncc(-c3c(C)noc3C)cc21 [P-0364, 5-[1-[dideuterio-(4,4-difluorocyclohexyl)methyl]-6-(3,5-dimethylisoxazol-4-yl)pyrrolo[3,2-b]pyridin-3-yl]pyrazin-2-amine]	< 1 µM	< 10 µM	< 1 µM
Cc1noc(C)c1-c1cnc2c(-c3cnn(CC(F)(F)F)c3)cn(Cc3ccc(Cl)cc3)c2c1 [P-0365, 4-[1-[(4-chlorophenyl)methyl]-3-[1-(2,2,2-trifluoroethyl)pyrazol-4-yl]pyrrolo[3,2-b]pyridin-6-yl]-3,5-dimethyl-isoxazole]	< 1 µM	< 10 µM	< 1 µM
Cc1noc(C)c1-c1cnc2c(-c3cnn(CC(F)(F)F)c3)cn(Cc3ccc(F)cc3)c2c1 [P-0366, 4-[1-[(4-fluorophenyl)methyl]-3-[l-(2,2,2-trifluoroethyl)pyrazol-4-yl]pyrrolo[3,2-b]pyridin-6-yl]-3,5-dimethyl-isoxazole]	< 1 µM	< 10 µM	< 1 µM
Cc1noc(C)c1-c1cnc2c(-c3ccc(C(=O)O)cc3)cn(CC3(F)CCCCC3)c2c1 [P-0367, 4-[6-(3,5-dimethylisoxazol-4-yl)-1-[(1-fluorocyclohexyl)methyl]pyrrolo[3,2-b]pyridin-3-yl]benzoic acid]	< 1 µM	< 10 µM	< 1 µM
Cc1onc(N)c1-c1cnc2c(-c3cnn(CC(F)(F)F)c3)cn(CC3CCC(F)(F)CC3)c2c1 [P-0368, 4-[1-[(4,4-difluorocyclohexyl)methyl]-3-[1-(2,2,2-trifluoroethyl)pyrazol-4-yl]pyrrolo[3,2-b]pyridin-6-yl]-5-methyl-isoxazol-3-amine]	< 1 µM	< 10 µM	< 1 µM
Cc1nnn(C)c1-c1cnc2c(-c3ccc(C(=O)O)cc3)cn(CC3(F)CCC(F)(F)CC3)c2c1 [P-0373, 4-[6-(3,5-dimethyltriazol-4-yl)-1-[(1,4,4-trifluorocyclohexyl)methyl]pyrrolo[3,2-b]pyridin-3-yl]benzoic acid]	< 1 µM	< 10 µM	< 1 µM
Cc1noc(C)c1-c1cnc2c(-c3ccc(C(=O)OC(C)(C)C)cc3)cn(S(=O)(=O)c3ccccc3)c2c1 [P-0374, tert-butyl 4-[1-(benzenesulfonyl)-6-(3,5-dimethylisoxazol-4-yl)pyrrolo[3,2-b]pyridin-3-yl]benzoate]	10 to 200 µM	< 10 µM	1 to 10 µM
Cc1noc(C)c1-c1cnc2c(-c3ccc(C(=O)O)cc3)cn(Cc3ccccc3)c2c1 [P-0375, 4-[1-benzyl-6-(3,5-dimethylisoxazol-4-yl)pyrrolo[3,2-b]pyridin-3-yl]benzoic acid]	< 1 µM	< 10 µM	< 1 µM
Cc1noc(C)c1-c1cnc2c(-c3cnn(CC(F)(F)F)c3)cn(Cc3ccccn3)c2c1 [P-0376, 3,5-dimethyl-4-[1-(2-pyridylmethyl)-3-[1-(2,2,2-trifluoroethyl)pyrazol-4-yl]pyrrolo[3,2-b]pyridin-6-yl]isoxazole]	< 1 µM	< 10 µM	< 1 µM
Cc1nnn(C)c1-c1cnc2c(-c3ccc(C(=O)O)cc3)cn(CC3CCC(F)(F)CC3)c2c1 [P-0377, 4-[1-[(4,4-difluorocyclohexyl)methyl]-6-(3,5-dimethyltriazol-4-yl)pyrrolo[3,2-b]pyridin-3-yl]benzoic acid]	< 1 µM	< 10 µM	< 1 µM
